Legend:
Type in all cases: functional
[1] = system: Human immunodeficiency virus 1; test: Antiviral activity against HIV1 F-15 harboring integrase D10E, K42T, A124N, T125A, V126L, M154L, V201I, T206S, N232D, V281S mutant gene infected in human TZM-bl cells assessed as beta-galactosidase expression after 48 hrs by microplate luminometry relative to HIV1 R7/3 expressing wild type integrase enzyme
[2] = system: Human immunodeficiency virus 1; test: Antiviral activity against HIV1 A-6 harboring integrase D10E, V72I, A124T, M154I, R199K, V201I, N232D mutant gene infected in human TZM-bl cells assessed as beta-galactosidase expression after 48 hrs by microplate luminometry relative to HIV1 R7/3 expressing wild type integrase enzyme
[3] = system: Human immunodeficiency virus 1; test: Antiviral activity against HIV1 R-6 harboring integrase D10E, E11D, S17N, A23V, L28I, P30A, V72I, L101I, S119T, T122I, A124T, V201I, N222D, N232D, S230G, D253E, N254G mutant gene infected in human TZM-bl cells assessed as beta-galactosidase expression after 48 hrs by microplate luminometry relative to HIV1 R7/3 expressing wild type integrase enzyme
[4] = system: Human immunodeficiency virus 1; test: Antiviral activity against HIV1 R-31 harboring integrase D10E, E11D, V32I, V37I, V72I, L101I, T112I, A124N, T125A, K173R, A205S, Q216H, N222K, S230N, N232D mutant gene infected in human TZM-bl cells assessed as beta-galactosidase expression after 48 hrs by microplate luminometry relative to HIV1 R7/3 expressing wild type integrase enzyme
[5] = system: Human immunodeficiency virus 1; test: Antiviral activity against HIV1 N-19 harboring integrase D10E, E11D, D25E, V31I, I113V, S119G, A124N, V151I, V201I, N232D mutant gene infected in human TZM-bl cells assessed as beta-galactosidase expression after 48 hrs by microplate luminometry relative to HIV1 R7/3 expressing wild type integrase enzyme
[6] = system: Human immunodeficiency virus 1; test: Antiviral activity against HIV1 B-27 harboring integrase D10E, R20K, S39C, V72I, A124N, T125M, V201I, N232D mutant gene infected in human TZM-bl cells assessed as beta-galactosidase expression after 48 hrs by microplate luminometry relative to HIV1 R7/3 expressing wild type integrase enzyme
[7] = system: Human immunodeficiency virus 1; test: Antiviral activity against HIV1 B-28 harboring integrase D10E, R20K, S39C, V72I, A124N, T125V, V201I, N232D mutant gene infected in human TZM-bl cells assessed as beta-galactosidase expression after 48 hrs by microplate luminometry relative to HIV1 R7/3 expressing wild type integrase enzyme
[8] = system: Human immunodeficiency virus 1; test: Antiviral activity against HIV1 G-8 harboring integrase D10E, L101I, S119T, A124T, M154L, V201I, N232D, S283G mutant gene infected in human TZM-bl cells assessed as beta-galactosidase expression after 48 hrs by microplate luminometry relative to HIV1 R7/3 expressing wild type integrase enzyme
[9] = system: Human immunodeficiency virus 1; test: Antiviral activity against HIV1 G-4 harboring integrase K7R, D10E, S39C, L74I, K156R, K215N, T218I, N232D, L234I mutant gene infected in human TZM-bl cells assessed as beta-galactosidase expression after 48 hrs by microplate luminometry relative to HIV1 R7/3 expressing wild type integrase enzyme
[10] = system: Human immunodeficiency virus 1; test: Antiviral activity against HIV1 K-2 harboring integrase D10E, R20K, I113V, A124T, K188R, V201I, T206S, N232D, D278G mutant gene infected in human TZM-bl cells assessed as beta-galactosidase expression after 48 hrs by microplate luminometry relative to HIV1 R7/3 expressing wild type integrase enzyme
[11] = system: Human immunodeficiency virus 1; test: Antiviral activity against HIV1 harboring integrase T97A mutant infected in human TZM-bl cells assessed as beta-galactosidase expression after 48 hrs by microplate luminometry relative to HIV1 R7/3 expressing wild type integrase enzyme relative to HIV1 R7/3 expressing wild type integrase enzyme
[12] = system: Human immunodeficiency virus 1; test: Antiviral activity against HIV1 harboring integrase N155H mutant infected in human TZM-bl cells assessed as beta-galactosidase expression after 48 hrs by microplate luminometry relative to HIV1 R7/3 expressing wild type integrase enzyme relative to HIV1 R7/3 expressing wild type integrase enzyme

Compound: CNC(=O)c1cc(F)ccc1CNC(=O)c1nc(N2CCCCS2(=O)=O)c2cccnc2c1O
- Ratio EC50 [1]: 0.656
- Ratio EC50 [2]: 0.5
- Ratio EC50 [3]: 1.067
- Ratio EC50 [4]: 0.995
- Ratio EC50 [5]: 0.456
- Ratio EC50 [6]: 0.627
- Ratio EC50 [7]: 0.767
- Ratio EC50 [8]: 0.425
- Ratio EC50 [9]: 0.565
- Ratio EC50 [10]: 0.448
- Ratio EC50 [11]: 0.865
- Ratio EC50 [12]: 4.295

Compound: O=C(NCc1ccc(F)cc1)c1nc(N2CCCCS2(=O)=O)c2cccnc2c1O
- Ratio EC50 [1]: 0.505
- Ratio EC50 [2]: 0.863
- Ratio EC50 [3]: 1.175
- Ratio EC50 [4]: 1.268
- Ratio EC50 [5]: 1.416
- Ratio EC50 [6]: 1.306
- Ratio EC50 [7]: 0.973
- Ratio EC50 [8]: 0.488
- Ratio EC50 [9]: 1.3
- Ratio EC50 [10]: 0.468
- Ratio EC50 [11]: 6.067
- Ratio EC50 [12]: 12.647

Compound: CN(C)C(=O)C(=O)N(C)c1nc(C(=O)NCc2ccc(F)cc2)c(O)c2ncccc12
- Ratio EC50 [1]: 0.33
- Ratio EC50 [2]: 0.836
- Ratio EC50 [3]: 0.412
- Ratio EC50 [4]: 1.589
- Ratio EC50 [5]: 0.927
- Ratio EC50 [6]: 0.966
- Ratio EC50 [7]: 0.673
- Ratio EC50 [8]: 0.515
- Ratio EC50 [9]: 0.643
- Ratio EC50 [10]: 0.461
- Ratio EC50 [11]: 3.767
- Ratio EC50 [12]: 2.692

Compound: CN(C)C(=O)C(=O)NC(C)(C)c1nc(C(=O)NCc2ccc(F)cc2)c(O)c(=O)n1C
- Ratio EC50 [1]: 0.329
- Ratio EC50 [2]: 0.946
- Ratio EC50 [3]: 0.644
- Ratio EC50 [4]: 1.005
- Ratio EC50 [5]: 0.998
- Ratio EC50 [6]: 0.592
- Ratio EC50 [7]: 0.766
- Ratio EC50 [8]: 0.286
- Ratio EC50 [9]: 0.847
- Ratio EC50 [10]: 0.394
- Ratio EC50 [11]: 2
- Ratio EC50 [12]: 0.78

Source: ChEMBL document CHEMBL1649238, “Natural polymorphisms of human immunodeficiency virus type 1 integrase and inherent susceptibilities to a panel of integrase inhibitors” (2009)
